Results from patent publication US20240368168A1, “SARM1 ENZYME ACTIVITY INHIBITOR AND APPLICATION THEREOF” (ARTIVILA BIOPHARMA, priority 2021, published 2024).
Counter-ions that a name gives are not always drawn.

Assays:
[1] = molecular target: T1, SARM1 protein in iSARM1 (HEK293) cells (Homo sapiens, UniProt Q6SZW1); assay: Inhibitory activity in inducible SARM1 overexpressing cell line, intracellular cADPR level; type: cell-based; conditions: activator CZ-48 100 μM, cADPR content
T1 construct: The full-length SARM1 was synthesized into the pUC57 plasmid by WZ Biosciences Inc., and PCR was performed using pUC57-SARM1 as a DNA template
T1 sequence (Q6SZW1 28-724): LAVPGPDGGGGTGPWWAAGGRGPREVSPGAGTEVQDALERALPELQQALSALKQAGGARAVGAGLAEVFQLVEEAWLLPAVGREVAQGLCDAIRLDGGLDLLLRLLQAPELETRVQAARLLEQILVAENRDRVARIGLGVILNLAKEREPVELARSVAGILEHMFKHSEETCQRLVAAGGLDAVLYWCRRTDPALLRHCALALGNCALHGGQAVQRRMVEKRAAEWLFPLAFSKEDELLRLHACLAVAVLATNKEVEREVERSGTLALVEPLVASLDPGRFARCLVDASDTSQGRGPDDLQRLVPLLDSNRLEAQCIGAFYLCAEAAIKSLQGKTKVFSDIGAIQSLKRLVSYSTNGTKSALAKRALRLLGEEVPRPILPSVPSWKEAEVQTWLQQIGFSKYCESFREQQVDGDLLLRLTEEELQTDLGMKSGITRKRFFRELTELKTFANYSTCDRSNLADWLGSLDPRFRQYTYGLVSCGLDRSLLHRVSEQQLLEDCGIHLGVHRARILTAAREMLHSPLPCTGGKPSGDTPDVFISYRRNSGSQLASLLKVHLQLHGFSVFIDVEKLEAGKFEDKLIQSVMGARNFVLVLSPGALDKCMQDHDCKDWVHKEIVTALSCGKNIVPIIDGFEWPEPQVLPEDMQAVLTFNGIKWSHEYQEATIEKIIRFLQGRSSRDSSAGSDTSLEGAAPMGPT
Procedure: In this example, the gene sequence of SARM1 was amplified using PCR, and constructed into pInducer20-neo plasmid. pInducer20-SARM1 virus was packaged in a liposome and infected HEK293 to obtain an inducible SARM1-overexpressing cell line, which was labeled as iSARM1 (HEK293). The specific preparation was as follows:
First, a 96-well culture plate was treated with 0.05 mg/ml polylysine for 5 minutes and washed once with PBS. 3×10^4 iSARM1 (HEK293) cells were plated into the 96-well plate and cultured overnight in a 37° C. and 5% incubator. The next day, the cells were added with an inhibitor with a final concentration of 50 μM, incubated in the incubator for 1.5 hours, added with activator CZ-48 with a final concentration of 100 μM, and incubated for 16 hours. Meanwhile, the cells without adding CZ-48 or without adding drug were set as control group. Finally, the intracellular cADPR level was detected to represent the activity of SARM1, and the inhibition rate of SARM1 in cells by 50 μM inhibitor was calculated.
The cADPR measurement was performed as follows. First, the cells were washed once with PBS, and added with 150 μl of pre-cooled 0.6M perchloric acid (PCA) to quickly lyse the cells and precipitate the protein. The PCA supernatant was transferred to a 1.5 ml centrifuge tube. The protein in the culture medium was dissolved again with 100 μl of 1M NaOH. The supernatant was added with 0.5 ml of organic reagent mixture (trioctylamine:chloroform=1:3) to extract PCA from water. After sufficient shaking, the mixture was centrifuged at 12,000 rpm for 10 minutes. The solution was divided into 3 layers: the upper aqueous phase, containing the small molecules of interest; the lower organic phase, in which PCA was dissolved; and a thin protein layer between the upper and lower layers. The upper layer was transferred to a new centrifuge tube, added with 1M Tris-Mg at a ratio of 1:100 (1M Tris (pH 8.0): 1M MgCl2=9:1), added with NADase at a ratio of 1:250, and treated at 37° C. overnight to remove NAD^+ from the mixed solution. After the treatment was completed, the mixed solution was filtered using Millipore's 10 K 96-well filter plate to remove NADase.
The cADPR content in the solution was determined through Cycling analysis method. The specific steps were as follows: 20 μl of the sample to be tested or the cADPR standard was taken and added to a 96-well opaque white plate. Preparation of reaction solution: 9.6 ml of PBS (pH 7.4), 200 μl of ethanol, 150 μl of 1 mg/ml AD, 10 μl of 10 mM FMN, 5 μl of 18 mg/ml Diaphorase, 10 μl of 10 mM Resazurin, and 100 μl of 1M Nam. Half of the reaction solution was divided and added with 0.2 μg/ml cyclase. The reaction solution without adding cyclase was used as control experiment. Each sample was divided into two groups, 3 replicates in each group. The reaction solutions containing or not containing cyclase were added to each group to perform the reaction. The reaction kinetic curve within 30 minutes was recorded (Ex:Em=544/599). The average slope of the reaction was calculated. Conversion was performed according to cADPR standard to obtain the accurate cADPR content. A curve of intracellular cADPR content vs corresponding inhibitor concentration was plotted. The half inhibitory concentration of the inhibitor was calculated.

dN-SARM1 protein = molecular target: T2, dN-SARM1 protein (Homo sapiens, UniProt Q6SZW1); assay: In vitro biochemical assay for inhibiting SARM1 enzymatic activity (IC50), PC6 fluorescence method; conditions: 50 μM NAD, 50 μM PC6, 50 μM NMN activator
T2 construct: the N-terminal mitochondrial localization signal peptide of SARM1 was removed
T2 sequence (Q6SZW1 28-724): T1 sequence (Q6SZW1 28-724)
Procedure, shortened: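 Activity read as the rate of PC6 fluorescence change (390 nm excitation, 520 nm emission) over a 30 min room-temperature reaction containing final 50 μM each of NAD, PC6 and NMN activator. Enzyme, 0.05 μg/ml dN-SARM1 in 50 mM Tris-HCl pH 7.5, first incubated 10 min with compound diluted serially from 200 μM; IC50 calculated.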

Structure (SMILES) | EC50 [1] [nM] | IC50 (dN-SARM1 protein) [nM]
CNc1ccc2ncc(-c3cccc(NC(=O)c4ccccc4)c3)n2c1 [Compound 251] | 1000 to 10000 | 1000 to 10000
Nc1cccc(/C=C/CNc2ccc3ncc(-c4ccccc4)n3c2)c1 [Compound 220] | 1000 to 10000 | 1000 to 10000
CNc1ccc2ncc(-c3nccc4[nH]ccc34)n2c1 [Compound 183] | 1000 to 10000 | 1000 to 10000
CN(C(=O)OC(C)(C)C)c1ccc2ncc(-c3cccc(C(N)=O)c3)n2c1 [Compound 7] | 1000 to 10000 | 1000 to 10000
CN(C(=O)OC(C)(C)C)c1ccc2ncc(-c3ccncc3F)n2c1 [Compound 278] | 1000 to 10000 | 1000 to 10000
c1ccc(-c2cnc3ccc(NC4CCOC4)cn23)cc1 (centres unmarked) [Compound 87, 3-phenyl-N-(tetrahydrofuran-3-yl)imidazo[1,2-a]pyridin-6-amine] | 1000 to 10000 | < 1000
CN(C(=O)OC(C)(C)C)c1ccc2ncc(-c3cccc(C(=O)NC[C@@H]4CCO4)c3)n2c1 [Compound 246] | 1000 to 10000 | 1000 to 10000
CNc1ccc2ncc(-c3cccc(OC)c3)n2c1 [Compound 70] | 1000 to 10000 | 1000 to 10000
CN(C(=O)OC(C)(C)C)c1ccc2ncc(-c3cccc(NC(=O)COCCOCCOCC(N)=O)c3)n2c1 [Compound 99, tert-butyl (3-(3-(2-(2-(2-(2-amino-2-oxoethoxy)ethoxy)ethoxy)acetamido)phenyl)imidazolin[1,2-a]pyridin-6-yl)(methyl)carbamate] | 1000 to 10000 | 1000 to 10000
CN(C(=O)C1CC1)c1ccc2ncc(-c3cccc(NC(=O)C4CCOCC4)c3)n2c1 [Compound 307] | 1000 to 10000 | < 1000
CN(C(=O)OC(C)(C)C)c1ccc2ncc(-c3cccnc3)n2c1 [Compound 15] | 1000 to 10000 | 1000 to 10000
CNc1ccc2ncc(-c3cccc(NC(=O)C4CCCO4)c3)n2c1 (centres unmarked) [Compound 236] | 1000 to 10000 | < 1000
COC(=O)c1cccc(-c2cnc3ccc(N(C)C(=O)C(C)(C)C)cn23)c1 [Compound 301] | 1000 to 10000 | < 1000
O=C(Cc1ccc(Cl)cc1)Nc1cccn2c(-c3ccncc3)cnc12 [Compound 234] | 1000 to 10000 | 1000 to 10000
CNc1ccc2ncc(-c3cccc(C(=O)OC)c3)n2c1 [Compound 273] | 1000 to 10000 | 1000 to 10000
CNc1ccc2ncc(-c3cccc(NC(=O)COCCOCC(=O)N[C@H](C(=O)N4C[C@H](O)C[C@H]4C(=O)NCc4ccc(-c5scnc5C)cc4)C(C)(C)C)c3)n2c1 [Compound 114, (2S,4R)-1-((S)-3,3-dimethyl-2-(2-(2-(2-((3-(6-(methylamino)imidazo[1,2-a]pyridin-3-yl)phenyl)amino)-2-oxoethoxy)ethoxy)acetamido)butyryl)-4-hydroxy-N-(4-(4-methylthiazol-5-yl)benzyl)pyrrolidin-2-carboxamide hydrochloride] | 1000 to 10000 | < 1000

Other lines, results leading:

EC50 [1] [nM] | IC50 (dN-SARM1 protein) [nM] | Structure (SMILES)
1000 to 10000 | < 1000 | CNc1ccc2ncc(-c3ccccc3)n2c1 [Compound 65, N-methyl-3-phenylimidazo[1,2-a]pyridin-6-amine]
< 1000 | 1000 to 10000 | CC(C)(C)OC(=O)N(C/C=C/c1cccc(NC(=O)C2CCOCC2)c1)c1ccc2ncc(-c3ccccc3)n2c1 [Compound 221]
1000 to 10000 | < 1000 | CN(C(=O)OC(C)(C)C)c1ccc2ncc(-c3cccc4c3CNC4=O)n2c1 [Compound 256]
1000 to 10000 | < 1000 | CN(C(=O)OC(C)(C)C)c1ccc2ncc(-c3cccc4c3C(=O)NC4)n2c1 [Compound 164]
< 1000 | 1000 to 10000 | CN(C(=O)OC(C)(C)C)c1ccc2ncc(-c3cccc(NC(=O)C4CCCO4)c3)n2c1 (centres unmarked) [Compound 245]
< 1000 | < 1000 | CN(C(=O)OC(C)(C)C)c1ccc2ncc(-c3cccc4ncsc34)n2c1 [Compound 167]
< 1000 | 1000 to 10000 | CN(C(=O)OC(C)(C)C)c1ccc2ncc(-c3cccc(NC(=O)COCCOCc4ccccc4)c3)n2c1 [Compound 244]
< 1000 | 1000 to 10000 | CC(C)(C)OC(=O)N(C/C=C/c1cccc(N)c1)c1ccc2ncc(-c3cccc(N)c3)n2c1 [Compound 212, tert-butyl (E)-(3-(3-aminophenyl)allyl)(3-(3-aminophenyl)imidazo[1,2-a]pyridin-6-yl)carbamate]
< 1000 | < 1000 | CN(C(=O)OC(C)(C)C)c1ccc2ncc(-c3cccc(NC(=O)[C@H]4CCOC4)c3)n2c1 [Compound 239]
< 1000 | 1000 to 10000 | O=C1CCCN1c1ccc2ncc(-c3cccc4[nH]ccc34)n2c1 [Compound 205]
< 1000 | < 1000 | CN(C(=O)OC(C)(C)C)c1ccc2ncc(-c3cccc(NC(=O)COCCOCC(=O)Nc4cccc(-c5cnc6ccc(N(C)C(=O)OC(C)(C)C)cn56)c4)c3)n2c1 [Compound 116, ((((((2,2′-(ethane-1,2-diylbis(oxy))bis(acetyl))bis(azadialkyl))bis(31-phenylene))bis(imidazo[1,2-a]pyridin-3,6-diyl))bis(tert butylmethylcarbamate)]
< 1000 | 1000 to 10000 | CC(C)OCCOCC(=O)Nc1cccc(-c2cnc3ccc(N(C)C(=O)OC(C)(C)C)cn23)c1 [Compound 247]
< 1000 | < 1000 | CC(C)(C)OC(=O)Nc1ccc2ncc(-c3cccc(NC(=O)COCCOCc4ccccc4)c3)n2c1 [Compound 240]
< 1000 | < 1000 | CN(C(=O)OC(C)(C)C)c1ccc2ncc(-c3cccc(NC(=O)COCCOCCOCC(=O)Nc4cccc(-c5cnc6ccc(N(C)C(=O)OC(C)(C)C)cn56)c4)c3)n2c1 [Compound 121, ((((2,2′-((oxybis(ethane-2,1-diyl))bis(oxy))bis(acetyl))bis(azadiyl))bis(3,1-phylene))bis(imidazo[1,2-a]pyridin-3,6-diyl))bis(tert-butyl (methyl)carbamate)]
< 1000 | 1000 to 10000 | Ic1cnc2ccc(-n3cccn3)cn12 [Compound 201, 3-iodo-6-(1H-pyrazol-1-yl)imidazo[1,2-a]pyridine]
